One data set addresses NS5B polymerase (Hepatitis C virus genotype 1b, UniProt P26663). Kind of data set: biochemical. The note with it: NS5B polymerase inhibition; 20 nM enzyme, 75 min at 28° C.; read-out: IC50.
Another data set has as its system HCV replicon. Kind of data set: HCV replicon assay. The note with it: Hepatitis C virus; Example numbers 64 and 65 in Table 1; HCV replicon cells, 72 hours exposure; read-out: EC50 (HCV replicon inhibition). The data set is classed as cell-based. As for the experimental part:
HCV Replicon Assay (Replicon EC50 (μM))
The cell culture component of the assay is performed essentially as described by Bartenschlager et al., Hepatology 2002, 35, 694-703, wherein exponentially growing HCV Huh-7/C24 replicon cells are seeded at 4.5×10^3 cells/well in 96 well plates and 24 hours later are treated with six point half-log concentration of compound. After 72 hours exposure the media is discarded from the compound assay plate and the cell monolayers are lysed by addition of 150 µL lysis mixture (Genospectra) with incubation at 53° C. for 45 minutes. Following incubation, each lysate is thoroughly mixed and 5 µl (NS3 probe) or 10 µL (GAPDH probe) of each lysate is then transferred to the capture plate and analyzed by bDNA assay.
Branched DNA (bDNA) Assay […]
After subsequent addition of the chemilumigenic substrate (dioxetan), each plate is read by luminometer (Wallac 1420 Multilabel HTS Counter Victor 2). The luminescence signal is proportional to the amount of mRNA present in each lysate. In addition to the samples, cell lysate only (no probe) background controls are also included on each bDNA assay plate and the average signal from these control wells is subtracted from the sample reading prior to analysis. Percent of no drug control is determined for both the NS3 and GAPDH signals for each compound also. […]
For orientation: A replicon is a self-replicating genome or part of one, used to study replication in cells.

Chain of NS5B polymerase (P26663 2420-3010): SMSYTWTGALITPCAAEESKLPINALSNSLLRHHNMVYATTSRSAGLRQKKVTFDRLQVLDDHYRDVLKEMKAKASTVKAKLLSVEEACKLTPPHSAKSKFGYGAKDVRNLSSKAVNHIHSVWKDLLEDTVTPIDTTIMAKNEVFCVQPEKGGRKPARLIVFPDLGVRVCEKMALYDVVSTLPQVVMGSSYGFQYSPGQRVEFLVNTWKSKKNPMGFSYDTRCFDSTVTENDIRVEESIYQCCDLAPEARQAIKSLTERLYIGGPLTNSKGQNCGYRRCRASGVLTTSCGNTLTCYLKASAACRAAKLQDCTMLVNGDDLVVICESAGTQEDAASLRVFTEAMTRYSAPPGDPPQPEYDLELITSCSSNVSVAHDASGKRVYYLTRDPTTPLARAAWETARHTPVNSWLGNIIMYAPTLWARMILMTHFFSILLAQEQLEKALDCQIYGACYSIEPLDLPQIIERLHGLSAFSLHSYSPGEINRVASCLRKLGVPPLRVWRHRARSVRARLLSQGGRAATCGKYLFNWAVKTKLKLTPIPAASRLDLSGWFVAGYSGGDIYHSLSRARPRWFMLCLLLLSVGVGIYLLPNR

For orientation: melting point means the temperature, or range, at which the solid turns liquid. As usually defined, the IC50 is the midpoint of a concentration-inhibition curve. Molecule `CS(=O)(=O)Nc1ccc2c(c1)S(=O)(=O)N=C(C1=C(O)[C@@H]3[C@H]4CC[C@H](CC4)[C@@H]3N(Cc3ccc(F)cc3)C1=O)N2` (relative stereo) [Example 50, cis-N-{3-[3-(4-Fluoro-benzyl)-6-hydroxy-4-oxo-3-aza-tricyclo[6.2.2.0^2,7]dodec-5-en-5-yl]-1,1-dioxo-1,4-dihydro-1λ^6-benzo[1,2,4]thiadiazin-7-yl}-methanesulfonamide] gave a melting point of 203.8 to 205.7 °C. Also, the IC50 at NS5B polymerase is under 20 nM. The corresponding values for `CS(=O)(=O)Nc1ccc2c(c1)S(=O)(=O)N=C(C1=C(O)[C@@H]3C4CCC(CC4)[C@@H]3N(Cc3ccc(F)cc3)C1=O)N2` [Example 49, N-{3-[(2S,7R)-3-(4-Fluoro-benzyl)-6-hydroxy-4-oxo-3-aza-tricyclo[6.2.2.0^2,7]dodec-5-en-5-yl]-1,1-dioxo-1,4-dihydro-1λ^6-benzo[1,2,4]thiadiazin-7-yl}-methanesulfonamide] are 203.8 to 205.7 °C and under 20 nM. Turning to `CS(=O)(=O)Nc1cnc2c(c1)S(=O)(=O)N=C(C1=C(O)[C@@H]3[C@H]4CC[C@H](C4)[C@@H]3N(Cc3ccc(F)cc3)C1=O)N2` [Example 62, N-{3-[(1R,2S,7R,8S)-3-(4-Fluoro-benzyl)-6-hydroxy-4-oxo-3-aza-tricyclo[6.2.1.0^2,7]undec-5-en-5-yl]-1,1-dioxo-1,4-dihydro-1λ^6-pyrido[2,3-e][1,2,4]thiadiazin-7-yl}-methanesulfonamide], the IC50 at NS5B polymerase was in the range of 20 to 100 nM. Same read-out and setting: the result for `O=C1C(C2=NS(=O)(=O)c3cccnc3N2)=C(O)[C@@H]2[C@H]3CC[C@H](C3)[C@@H]2N1Cc1ccc(F)cc1` [Example 63, (1R,2S,7R,8S)-5-(1,1-Dioxo-1,4-dihydro-1λ^6-pyrido[2,3-e][1,2,4]thiadiazin-3-yl)-3-(4-fluoro-benzyl)-6-hydroxy-3-aza-tricyclo[6.2.1.0^2,7]undec-5-en-4-one] reads 100 to 1000 nM.

Usually EC50 stands for the concentration needed to bring the measured effect to its halfway point. With `O=C1C(C2=NS(=O)(=O)c3cnccc3N2)=C(O)[C@@H]2[C@H]3CC[C@H](C3)[C@@H]2N1Cc1ccc(F)cc1` [Example 64, (1R,2S,7R,8S)-5-(1,1-Dioxo-1,4-dihydro-1λ^6-pyrido[4,3-e][1,2,4]thiadiazin-3-yl)-3-(4-fluoro-benzyl)-6-hydroxy-3-aza-tricyclo[6.2.1.0^2,7]undec-5-en-4-one], the EC50 with HCV replicon lay in the range of 100 to 1000 nM.

For `O=C1C(C2=NS(=O)(=O)c3ncccc3N2)=C(O)[C@@H]2[C@H]3CC[C@H](C3)[C@@H]2N1Cc1ccc(F)cc1` [Example 65, (1R,2S,7R,8S)-5-(1,1-Dioxo-1,4-dihydro-1λ^6-pyrido[3,2-e][1,2,4]thiadiazin-3-yl)-3-(4-fluoro-benzyl)-6-hydroxy-3-aza-tricyclo[6.2.1.0^2,7]undec-5-en-4-one], the EC50 with HCV replicon lay in the range of 100 to 1000 nM. For `CS(=O)(=O)Nc1ccc2c(c1)S(=O)(=O)N=C(C1=C(O)[C@@H]3[C@H]4CC[C@H](C4)[C@@H]3N(CCC3CC3)C1=O)N2` [Example 66, N-{3-[(1R,2S,7R,8S)-3-(2-Cyclopropyl-ethyl)-6-hydroxy-4-oxo-3-aza-tricyclo[6.2.1.0^2,7]undec-5-en-5-yl]-1,1-dioxo-1,4-dihydro-1λ^6-benzo[1,2,4]thiadiazin-7-yl}-methanesulfonamide], at NS5B polymerase, the IC50 lay in the range of 20 to 100 nM.
